Test results published in ChEMBL document CHEMBL5653631, “A Potent and Selective ULK1 Inhibitor Suppresses Autophagy and Sensitizes Cancer Cells to Nutrient Stress” (iScience, 2018).
One block for each molecule: values may come before it.

Key:
[1] = biological target: T1, Phosphorylase b kinase gamma catalytic chain, liver/testis isoform (Homo sapiens) (UniProt P15735); assay: Inhibition of human recombinant PHKg2 at 500 nM related to control ULK1
T1 sequence (whole entry): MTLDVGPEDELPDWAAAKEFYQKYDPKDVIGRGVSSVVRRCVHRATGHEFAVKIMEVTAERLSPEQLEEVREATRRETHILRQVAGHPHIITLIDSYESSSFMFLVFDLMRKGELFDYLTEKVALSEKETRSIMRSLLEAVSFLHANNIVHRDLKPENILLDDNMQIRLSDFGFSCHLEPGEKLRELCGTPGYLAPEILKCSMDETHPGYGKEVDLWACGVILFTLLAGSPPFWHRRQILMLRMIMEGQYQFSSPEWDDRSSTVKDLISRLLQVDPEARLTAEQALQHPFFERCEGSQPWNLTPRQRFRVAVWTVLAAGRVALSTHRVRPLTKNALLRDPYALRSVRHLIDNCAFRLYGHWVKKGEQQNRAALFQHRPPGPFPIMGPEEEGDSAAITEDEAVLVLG

[2] = biological target: Cyclin-dependent kinase 7 (Homo sapiens) (UniProt P50613); assay: Inhibition of human recombinant CDK7 at 500 nM in presence of ATP by radiometric assay relative to control
[3] = biological target: T2, Serine/threonine-protein kinase Sgk1 (Homo sapiens) (UniProt O00141); assay: Inhibition of human recombinant SGK1 at 500 nM in presence of ATP by radiometric assay relative to control
T2 sequence (whole entry): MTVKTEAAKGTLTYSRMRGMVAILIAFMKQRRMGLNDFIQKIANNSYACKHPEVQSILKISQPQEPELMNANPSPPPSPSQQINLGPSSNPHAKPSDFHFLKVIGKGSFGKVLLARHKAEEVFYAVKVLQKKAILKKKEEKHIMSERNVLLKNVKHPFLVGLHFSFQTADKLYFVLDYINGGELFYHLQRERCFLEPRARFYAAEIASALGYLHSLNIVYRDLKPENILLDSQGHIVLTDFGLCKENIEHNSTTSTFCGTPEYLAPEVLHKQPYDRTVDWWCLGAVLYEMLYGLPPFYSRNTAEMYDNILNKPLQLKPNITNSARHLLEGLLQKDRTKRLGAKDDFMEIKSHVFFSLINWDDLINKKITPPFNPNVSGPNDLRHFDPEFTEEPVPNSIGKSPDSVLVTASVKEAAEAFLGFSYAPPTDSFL

[4] = biological target: T3, Tyrosine-protein kinase receptor TYRO3 (Homo sapiens) (UniProt Q06418); assay: Inhibition of human recombinant TYRO3 at 500 nM related to control ULK1
T3 sequence (whole entry): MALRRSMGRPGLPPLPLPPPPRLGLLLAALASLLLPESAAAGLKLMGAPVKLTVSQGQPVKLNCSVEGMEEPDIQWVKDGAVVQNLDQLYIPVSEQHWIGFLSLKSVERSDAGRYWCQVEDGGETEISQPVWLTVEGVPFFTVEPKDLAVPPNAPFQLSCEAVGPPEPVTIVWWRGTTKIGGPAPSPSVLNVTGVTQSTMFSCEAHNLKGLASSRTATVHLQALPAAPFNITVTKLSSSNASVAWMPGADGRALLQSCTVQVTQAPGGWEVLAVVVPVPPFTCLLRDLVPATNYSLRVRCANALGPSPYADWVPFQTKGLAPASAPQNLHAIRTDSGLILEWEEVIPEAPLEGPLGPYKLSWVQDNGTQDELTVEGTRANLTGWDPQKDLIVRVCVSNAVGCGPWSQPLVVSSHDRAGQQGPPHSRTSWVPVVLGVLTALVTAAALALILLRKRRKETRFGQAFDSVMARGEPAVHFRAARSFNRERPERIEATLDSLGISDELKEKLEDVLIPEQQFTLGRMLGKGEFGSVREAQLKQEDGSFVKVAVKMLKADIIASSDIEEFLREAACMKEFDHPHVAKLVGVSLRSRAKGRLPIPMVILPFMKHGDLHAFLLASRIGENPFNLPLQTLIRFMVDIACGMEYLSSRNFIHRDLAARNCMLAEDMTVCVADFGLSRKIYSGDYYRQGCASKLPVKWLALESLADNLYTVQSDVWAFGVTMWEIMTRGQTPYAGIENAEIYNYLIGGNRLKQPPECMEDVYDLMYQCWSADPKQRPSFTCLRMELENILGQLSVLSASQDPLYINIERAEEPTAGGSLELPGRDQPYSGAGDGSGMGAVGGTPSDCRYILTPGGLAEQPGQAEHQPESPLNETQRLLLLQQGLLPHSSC

[5] = biological target: SRSF protein kinase 3 (Homo sapiens) (UniProt Q9UPE1); assay: Inhibition of human recombinant MSSK1 at 500 nM in presence of ATP by radiometric assay relative to control
[6] = biological target: Serine/threonine-protein kinase 25 (Homo sapiens) (UniProt O00506); assay: Inhibition of human recombinant YSK1 at 500 nM related to control ULK1
[7] = biological target: T4, Testis-specific serine/threonine-protein kinase 2 (Homo sapiens) (UniProt Q96PF2); assay: Inhibition of human recombinant TSSK2 at 40 nM in presence of ATP by radiometric assay relative to control
T4 sequence (whole entry): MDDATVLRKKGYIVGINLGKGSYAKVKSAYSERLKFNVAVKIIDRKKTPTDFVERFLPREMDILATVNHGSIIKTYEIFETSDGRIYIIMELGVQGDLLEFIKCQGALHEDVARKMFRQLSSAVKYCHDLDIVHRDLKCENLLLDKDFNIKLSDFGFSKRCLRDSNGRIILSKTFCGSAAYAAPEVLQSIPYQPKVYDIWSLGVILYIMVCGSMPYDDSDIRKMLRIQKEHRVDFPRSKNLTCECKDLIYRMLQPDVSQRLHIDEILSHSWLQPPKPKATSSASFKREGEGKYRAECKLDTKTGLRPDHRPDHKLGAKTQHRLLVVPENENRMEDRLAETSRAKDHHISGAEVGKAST

[8] = biological target: Protein kinase C iota type (Homo sapiens) (UniProt P41743); assay: Inhibition of human recombinant PKCi at 40 nM related to control ULK1
[9] = biological target: Ephrin type-A receptor 2 (Homo sapiens) (UniProt P29317); assay: Inhibition of human recombinant EphA2 at 40 nM related to control ULK1
[10] = biological target: Wee1-like protein kinase 2 (Homo sapiens) (UniProt P0C1S8); assay: Inhibition of human recombinant Wee1B at 15 nM in presence of ATP by radiometric assay relative to control
[11] = biological target: Cyclin-dependent kinase 5 (Homo sapiens) (UniProt Q00535); assay: Inhibition of human recombinant CDK5 at 15 nM in presence of ATP by radiometric assay relative to control
[12] = biological target: Serine/threonine-protein kinase PAK 6 (Homo sapiens) (UniProt Q9NQU5); assay: Inhibition of human recombinant PAK6 at 15 nM in presence of ATP by radiometric assay relative to control
[13] = biological target: LIM domain kinase 1 (Homo sapiens) (UniProt P53667); assay: Inhibition of human recombinant LIMK1 at 15 nM related to control ULK1
Sequence of LIM domain kinase 1 (Homo sapiens) (P53667 whole entry, looked up, the tested form may be a part): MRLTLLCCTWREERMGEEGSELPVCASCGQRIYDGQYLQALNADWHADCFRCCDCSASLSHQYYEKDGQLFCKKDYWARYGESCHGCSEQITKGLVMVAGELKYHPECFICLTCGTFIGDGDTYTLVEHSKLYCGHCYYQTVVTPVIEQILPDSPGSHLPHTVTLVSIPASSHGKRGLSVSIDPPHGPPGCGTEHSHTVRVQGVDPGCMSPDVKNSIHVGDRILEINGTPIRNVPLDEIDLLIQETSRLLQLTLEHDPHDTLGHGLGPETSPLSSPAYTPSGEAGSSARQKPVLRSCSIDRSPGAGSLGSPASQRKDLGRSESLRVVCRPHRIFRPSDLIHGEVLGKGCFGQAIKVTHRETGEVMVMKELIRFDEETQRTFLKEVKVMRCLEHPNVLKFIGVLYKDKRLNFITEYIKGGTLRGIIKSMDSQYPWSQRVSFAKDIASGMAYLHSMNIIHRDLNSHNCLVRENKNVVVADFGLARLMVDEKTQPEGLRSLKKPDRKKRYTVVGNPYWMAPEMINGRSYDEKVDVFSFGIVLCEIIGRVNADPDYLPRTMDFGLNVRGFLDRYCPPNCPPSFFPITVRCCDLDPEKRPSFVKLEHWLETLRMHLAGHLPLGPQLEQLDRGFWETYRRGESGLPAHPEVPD

Sequence of Serine/threonine-protein kinase 25 (Homo sapiens) (O00506 whole entry, looked up): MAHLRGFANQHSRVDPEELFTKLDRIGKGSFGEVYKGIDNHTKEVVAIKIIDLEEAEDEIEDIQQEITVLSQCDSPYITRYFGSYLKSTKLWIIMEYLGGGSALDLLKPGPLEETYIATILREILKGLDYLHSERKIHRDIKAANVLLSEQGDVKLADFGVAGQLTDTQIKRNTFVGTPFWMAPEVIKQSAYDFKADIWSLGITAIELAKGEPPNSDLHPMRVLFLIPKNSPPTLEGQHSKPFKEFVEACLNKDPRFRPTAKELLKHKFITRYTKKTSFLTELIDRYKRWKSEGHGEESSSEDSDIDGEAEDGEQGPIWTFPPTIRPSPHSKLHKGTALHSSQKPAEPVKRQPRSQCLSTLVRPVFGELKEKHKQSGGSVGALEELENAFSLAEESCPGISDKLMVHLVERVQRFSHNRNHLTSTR
Sequence of Wee1-like protein kinase 2 (Homo sapiens) (P0C1S8 whole entry, looked up): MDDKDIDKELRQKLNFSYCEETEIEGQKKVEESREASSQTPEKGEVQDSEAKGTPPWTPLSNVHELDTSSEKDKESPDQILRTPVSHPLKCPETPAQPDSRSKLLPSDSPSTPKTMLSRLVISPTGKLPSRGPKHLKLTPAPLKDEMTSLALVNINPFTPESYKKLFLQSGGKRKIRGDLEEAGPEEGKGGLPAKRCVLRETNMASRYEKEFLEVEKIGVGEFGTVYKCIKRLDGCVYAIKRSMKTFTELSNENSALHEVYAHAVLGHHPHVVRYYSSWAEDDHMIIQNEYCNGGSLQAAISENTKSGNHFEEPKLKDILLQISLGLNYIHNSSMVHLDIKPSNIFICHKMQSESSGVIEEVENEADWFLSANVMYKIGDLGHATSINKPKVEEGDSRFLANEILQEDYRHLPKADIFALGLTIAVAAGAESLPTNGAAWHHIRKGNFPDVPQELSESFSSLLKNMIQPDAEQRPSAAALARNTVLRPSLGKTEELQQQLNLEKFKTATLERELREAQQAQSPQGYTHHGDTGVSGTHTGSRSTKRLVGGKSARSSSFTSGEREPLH
Sequence of Cyclin-dependent kinase 5 (Homo sapiens) (Q00535 whole entry, looked up): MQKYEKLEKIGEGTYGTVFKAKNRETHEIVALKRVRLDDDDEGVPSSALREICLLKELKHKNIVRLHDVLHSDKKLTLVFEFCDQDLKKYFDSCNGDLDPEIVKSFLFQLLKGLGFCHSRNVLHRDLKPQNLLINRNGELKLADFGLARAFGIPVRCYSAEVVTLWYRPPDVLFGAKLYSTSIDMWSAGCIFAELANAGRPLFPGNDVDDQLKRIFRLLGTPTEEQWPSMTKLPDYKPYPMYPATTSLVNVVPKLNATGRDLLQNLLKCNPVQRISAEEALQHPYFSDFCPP
Sequence of Protein kinase C iota type (Homo sapiens) (P41743 whole entry, looked up): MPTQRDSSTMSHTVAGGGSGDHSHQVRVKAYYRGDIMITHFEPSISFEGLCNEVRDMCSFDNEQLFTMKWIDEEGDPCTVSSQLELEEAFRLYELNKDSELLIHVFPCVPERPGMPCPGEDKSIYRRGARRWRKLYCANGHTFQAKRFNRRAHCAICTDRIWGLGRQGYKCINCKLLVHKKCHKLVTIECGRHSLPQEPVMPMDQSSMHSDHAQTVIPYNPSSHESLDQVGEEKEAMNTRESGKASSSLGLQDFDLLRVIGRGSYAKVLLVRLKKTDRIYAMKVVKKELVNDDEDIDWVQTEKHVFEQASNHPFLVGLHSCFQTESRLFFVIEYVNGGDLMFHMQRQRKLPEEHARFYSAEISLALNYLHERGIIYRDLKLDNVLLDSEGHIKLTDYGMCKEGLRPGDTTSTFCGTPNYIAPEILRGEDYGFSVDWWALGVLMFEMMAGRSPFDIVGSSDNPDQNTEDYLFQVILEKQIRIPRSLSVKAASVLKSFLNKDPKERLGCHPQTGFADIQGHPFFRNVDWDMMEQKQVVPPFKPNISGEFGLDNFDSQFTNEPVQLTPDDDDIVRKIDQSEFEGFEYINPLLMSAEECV
Sequence of Serine/threonine-protein kinase PAK 6 (Homo sapiens) (Q9NQU5 whole entry, looked up, the tested form may be a part): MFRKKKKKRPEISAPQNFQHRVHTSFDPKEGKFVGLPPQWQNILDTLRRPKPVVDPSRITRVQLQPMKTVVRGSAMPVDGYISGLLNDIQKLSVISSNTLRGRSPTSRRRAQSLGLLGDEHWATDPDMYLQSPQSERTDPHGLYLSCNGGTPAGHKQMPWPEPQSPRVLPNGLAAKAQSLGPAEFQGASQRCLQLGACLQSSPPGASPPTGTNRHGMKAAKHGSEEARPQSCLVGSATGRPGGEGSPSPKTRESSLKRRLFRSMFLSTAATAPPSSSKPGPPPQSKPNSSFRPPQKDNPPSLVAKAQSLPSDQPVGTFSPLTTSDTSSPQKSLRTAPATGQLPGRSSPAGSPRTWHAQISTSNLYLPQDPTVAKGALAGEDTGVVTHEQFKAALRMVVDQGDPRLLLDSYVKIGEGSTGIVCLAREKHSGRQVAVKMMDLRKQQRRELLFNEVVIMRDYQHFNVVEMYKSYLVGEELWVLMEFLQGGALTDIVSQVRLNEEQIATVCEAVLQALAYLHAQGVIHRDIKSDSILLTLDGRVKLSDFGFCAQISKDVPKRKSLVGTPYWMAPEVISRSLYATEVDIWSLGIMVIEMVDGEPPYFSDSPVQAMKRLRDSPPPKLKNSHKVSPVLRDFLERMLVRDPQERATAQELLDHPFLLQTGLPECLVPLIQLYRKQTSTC
Sequence of Cyclin-dependent kinase 7 (Homo sapiens) (P50613 whole entry): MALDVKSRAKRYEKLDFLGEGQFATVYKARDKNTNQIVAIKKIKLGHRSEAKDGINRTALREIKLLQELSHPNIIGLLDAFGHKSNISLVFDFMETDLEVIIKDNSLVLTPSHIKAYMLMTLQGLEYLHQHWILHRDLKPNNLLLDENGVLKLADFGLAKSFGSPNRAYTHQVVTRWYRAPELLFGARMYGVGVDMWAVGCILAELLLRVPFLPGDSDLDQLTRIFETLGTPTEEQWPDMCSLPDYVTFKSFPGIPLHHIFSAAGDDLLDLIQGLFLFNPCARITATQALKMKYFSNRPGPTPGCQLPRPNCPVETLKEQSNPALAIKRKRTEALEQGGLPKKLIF
Sequence of SRSF protein kinase 3 (Homo sapiens) (Q9UPE1 whole entry): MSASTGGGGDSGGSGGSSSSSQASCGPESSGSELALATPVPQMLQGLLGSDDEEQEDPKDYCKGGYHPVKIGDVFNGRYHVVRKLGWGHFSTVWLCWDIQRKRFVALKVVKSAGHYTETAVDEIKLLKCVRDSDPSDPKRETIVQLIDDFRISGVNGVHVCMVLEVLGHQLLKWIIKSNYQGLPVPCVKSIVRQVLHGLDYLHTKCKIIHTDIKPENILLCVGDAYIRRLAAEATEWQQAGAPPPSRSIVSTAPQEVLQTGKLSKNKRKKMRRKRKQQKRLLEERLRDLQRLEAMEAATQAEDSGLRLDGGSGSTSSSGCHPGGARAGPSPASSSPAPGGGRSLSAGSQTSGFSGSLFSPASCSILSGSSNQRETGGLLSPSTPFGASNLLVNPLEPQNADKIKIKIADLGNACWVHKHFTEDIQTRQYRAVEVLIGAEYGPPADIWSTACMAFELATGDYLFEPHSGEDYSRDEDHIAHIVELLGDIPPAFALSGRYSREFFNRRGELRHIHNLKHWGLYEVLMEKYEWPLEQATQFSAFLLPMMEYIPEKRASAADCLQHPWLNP

- fold change (FC) [1]: 0
- inhibition [2]: 29%
- inhibition [3]: 2%
- fold change (FC) [4]: 0.14
- inhibition [5]: 15%
- fold change (FC) [6]: 0.16
SMILES: CNC(=O)c1ccccc1Oc1nc(Nc2cc(OC)c(OC)c(OC)c2)ncc1Br

- inhibition [7]: 0%
- fold change (FC) [8]: 0
- fold change (FC) [9]: 0.03
SMILES: O=C(N[C@@H](C1CC1)C(F)(F)F)c1cc(-c2cnn3cc(-c4ccc(F)cc4)cnc23)cs1

- inhibition [10]: 11%
- inhibition [11]: 23%
- inhibition [12]: 0%
- fold change (FC) [13]: 0.64
SMILES: CC(C)[C@H](NC(=O)c1cc(-c2cnn3cc(-c4ccc(OCCN5CCCCC5)cc4)cnc23)cs1)C(F)(F)F
